Measured values as given in PubChem BioAssay (NCI).
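Results reflect a 48-hour exposure of cells in 96-well plates to compound at five concentrations. The concentration for 50% growth inhibition is given as GI50. TGI is the concentration that stops growth completely.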

Legend:
Assay in all cases: NCI tumour cell line growth inhibition, 48 h
[1] = tested on: 786-0 renal
[2] = tested on: A498 renal
[3] = tested on: A549 NSCLC
[4] = tested on: ACHN renal
[5] = tested on: BT-549 breast
[6] = tested on: CAKI-1 renal
[7] = tested on: CCRF-CEM leukemia
[8] = tested on: COLO 205 colon
[9] = tested on: DU-145 prostate
[10] = tested on: EKVX NSCLC
[11] = tested on: HCC-2998 colon
[12] = tested on: HCT-116 colon
[13] = tested on: HCT-15 colon
[14] = tested on: HL-60(TB) leukemia
[15] = tested on: HOP-62 NSCLC
[16] = tested on: HOP-92 NSCLC
[17] = tested on: HS 578T breast
[18] = tested on: HT29 colon
[19] = tested on: IGROV1 ovarian
[20] = tested on: K-562 leukemia
[21] = tested on: KM12 colon
[22] = tested on: LOX IMVI melanoma
[23] = tested on: M14 melanoma
[24] = tested on: MALME-3M melanoma
[25] = tested on: MCF7 breast
[26] = tested on: MDA-MB-231 breast
[27] = tested on: MDA-MB-435
[28] = tested on: MOLT-4 leukemia
[29] = tested on: NCI-H226 lung
[30] = tested on: NCI-H23 lung
[31] = tested on: NCI-H460 lung
[32] = tested on: NCI-H522 lung
[33] = tested on: NCI/ADR-RES ovarian
[34] = tested on: OVCAR-3 ovarian
[35] = tested on: OVCAR-4 ovarian
[36] = tested on: OVCAR-5 ovarian
[37] = tested on: OVCAR-8 ovarian
[38] = tested on: PC-3 prostate
[39] = tested on: RPMI-8226 leukemia
[40] = tested on: RXF 393 renal
[41] = tested on: SF-268 CNS
[42] = tested on: SF-295 CNS
[43] = tested on: SF-539 CNS
[44] = tested on: SK-MEL-2 melanoma
[45] = tested on: SK-MEL-28 melanoma
[46] = tested on: SK-MEL-5 melanoma
[47] = tested on: SK-OV-3 ovarian
[48] = tested on: SN12C renal
[49] = tested on: SNB-19 CNS
[50] = tested on: SNB-75 CNS
[51] = tested on: SR leukemia
[52] = tested on: SW-620 colon
[53] = tested on: T-47D breast
[54] = tested on: TK-10 renal
[55] = tested on: U251 CNS
[56] = tested on: UACC-257 melanoma
[57] = tested on: UACC-62 melanoma
[58] = tested on: UO-31 renal

Work on `O=Cc1ccc(O)c2ncccc12` yielded a GI50 [1] of 13.4 µM, a TGI [1] of 73.2 µM and a GI50 [2] of 25.4 µM. The TGI [2] was > 63.9 µM, the GI50 [3] was 28.1 µM and the TGI [3] was > 100 µM. For the same compound, the GI50 [4] was 12.9 µM, the TGI [4] was > 100 µM and the GI50 [5] was 3.59 µM. For the same compound, the TGI [5] was > 71.8 µM, the GI50 [6] was 7.29 µM and the TGI [6] was 35.4 µM. For the same compound, the GI50 [7] was 0.952 µM, the TGI [7] was > 32 µM and the GI50 [8] was 3.71 µM. It also gave a TGI [8] of 17.5 µM, a GI50 [9] of 7.28 µM and a TGI [9] of 32.1 µM. For the same compound, the GI50 [10] was 3.01 µM, the TGI [10] was 23.9 µM and the GI50 [11] was 11.8 µM. For the same compound, the TGI [11] was 41.8 µM, the GI50 [12] was 2.54 µM and the TGI [12] was 11.7 µM. The GI50 [13] was 1.29 µM, the TGI [13] was 18.3 µM and the TGI [14] was > 100 µM. It also gave a GI50 [15] of 5.59 µM, a TGI [15] of 45.3 µM and a GI50 [16] of 5.01 µM. The TGI [16] was > 73.5 µM, the GI50 [17] was 7.05 µM and the TGI [17] was > 53.7 µM. The GI50 [18] was 7.46 µM, the TGI [18] was 34.7 µM and the GI50 [19] was 3.32 µM. For the same compound, the TGI [19] was 16.8 µM, the GI50 [20] was 3.29 µM and the TGI [20] was > 100 µM. For the same compound, the GI50 [21] was 5.65 µM, the TGI [21] was 40.5 µM and the GI50 [22] was 2.31 µM. For the same compound, the TGI [22] was > 54.5 µM, the GI50 [23] was 2.99 µM and the TGI [23] was 26.1 µM. The GI50 [24] was 3.62 µM, the TGI [24] was 30.4 µM and the GI50 [25] was 2.45 µM. For the same compound, the TGI [25] was 8.11 µM, the GI50 [26] was 4.21 µM and the TGI [26] was > 100 µM. For the same compound, the GI50 [27] was 3.83 µM, the TGI [27] was 27.8 µM and the TGI [28] was > 38.8 µM. The GI50 [29] was 4.88 µM, the TGI [29] was > 79.1 µM and the GI50 [30] was 3.42 µM. For the same compound, the TGI [30] was > 55.8 µM, the GI50 [31] was 3.47 µM and the TGI [31] was 17.2 µM. For the same compound, the GI50 [32] was 25.5 µM, the TGI [32] was 90.8 µM and the GI50 [33] was 2.2 µM. The TGI [33] was > 29.4 µM, the GI50 [34] was 1.4 µM and the TGI [34] was 6.85 µM. For the same compound, the GI50 [35] was 2.91 µM, the TGI [35] was > 100 µM and the GI50 [36] was 4.65 µM. The TGI [36] was 65.5 µM, the GI50 [37] was 3.28 µM and the TGI [37] was > 100 µM. For the same compound, the GI50 [38] was 4.01 µM, the TGI [38] was > 46.6 µM and the GI50 [39] was 2.2 µM. For the same compound, the TGI [39] was 15.8 µM, the GI50 [40] was 10.4 µM and the TGI [40] was 33.8 µM. For the same compound, the GI50 [41] was 2.65 µM, the TGI [41] was > 100 µM and the GI50 [42] was 2.12 µM. For the same compound, the TGI [42] was 13.1 µM, the GI50 [43] was 3.33 µM and the TGI [43] was 19.3 µM. For the same compound, the GI50 [44] was 25.8 µM, the TGI [44] was > 96 µM and the GI50 [45] was 7.14 µM. The TGI [45] was > 53.3 µM, the GI50 [46] was 2.4 µM and the TGI [46] was 9.45 µM. It also gave a GI50 [47] of 10.8 µM, a TGI [47] of 39.3 µM and a GI50 [48] of 3.81 µM. The TGI [48] was > 100 µM, the GI50 [49] was 6.03 µM and the TGI [49] was > 100 µM. For the same compound, the GI50 [50] was 16.9 µM, the TGI [50] was > 82.4 µM and the GI50 [51] was 0.858 µM. For the same compound, the TGI [51] was > 31.8 µM, the GI50 [52] was 3.91 µM and the TGI [52] was 16.6 µM. For the same compound, the GI50 [53] was 2.56 µM, the TGI [53] was > 76 µM and the GI50 [54] was 17.4 µM. For the same compound, the TGI [54] was 52.5 µM, the GI50 [55] was 2.4 µM and the TGI [55] was 23.3 µM. For the same compound, the GI50 [56] was 3.45 µM, the TGI [56] was > 53.1 µM and the GI50 [57] was 3.58 µM. It also gave a TGI [57] of 27.6 µM, a GI50 [58] of 4.96 µM and a TGI [58] of 36.9 µM.
